Target: T1, electric eel AChE (eeAChE) (Electrophorus electricus, UniProt O42275)
T1 construct: purchased type VI-S
Assay: biochemical
Format: biochemical
Method: A UV–vis spectrophotometry-based assay was conducted to calculate the IC50 values for the diastereomeric mixtures (Table 6), according to Ellman et al.[37] and Mohamed et al.[38]
All of these solutions were prepared freshly directly before the assay was run. In 96-well plates, 160 μL of the 1.5 mM DTNB solution was first added, followed by 10 μL of different concentrations of test compounds. Then, a 0.22 U/mL enzyme solution was added (50 μL) and incubated at room temperature for 7 min. The background absorbance was measured at a wavelength of 412 nm on a POLARstar OPTIMA (BMG Labtech) microplate reader. The addition of 30 μL of the 15 mM ATCI solution initiated the enzymatic reaction, and the time elapsed between the beginning of the pipetting and the first measurement (t = 0) was noted and kept consistently at 2 min. Further kinetic measurements were made at different time intervals (t = 1, 2, 3, 4, 5 min) after a short episode of shaking (10 s). Each experiment was carried out in triplicate. Various control incubations containing 10 μL of methanol were run alongside the test compounds on each plate.

T1 sequence (O42275 24-633): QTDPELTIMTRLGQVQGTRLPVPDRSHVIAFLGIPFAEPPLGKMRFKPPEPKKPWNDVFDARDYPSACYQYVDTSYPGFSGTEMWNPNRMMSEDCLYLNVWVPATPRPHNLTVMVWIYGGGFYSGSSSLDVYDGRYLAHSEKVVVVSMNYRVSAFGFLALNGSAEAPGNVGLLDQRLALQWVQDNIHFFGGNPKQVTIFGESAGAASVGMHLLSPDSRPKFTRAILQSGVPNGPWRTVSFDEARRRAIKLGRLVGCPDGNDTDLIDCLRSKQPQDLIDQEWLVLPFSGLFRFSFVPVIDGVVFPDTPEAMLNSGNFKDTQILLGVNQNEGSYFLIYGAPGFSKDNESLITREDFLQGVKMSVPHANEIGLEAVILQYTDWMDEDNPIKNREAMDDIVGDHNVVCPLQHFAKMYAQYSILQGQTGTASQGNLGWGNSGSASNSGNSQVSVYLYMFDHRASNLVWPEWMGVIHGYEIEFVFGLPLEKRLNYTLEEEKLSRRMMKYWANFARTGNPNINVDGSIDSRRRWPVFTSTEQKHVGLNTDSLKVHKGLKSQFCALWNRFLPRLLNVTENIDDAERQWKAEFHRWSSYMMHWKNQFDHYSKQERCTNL

SMILES: COc1cc2c(cc1OC)C(=O)C(C[C@@H]1CCN([C@@H](C)c3ccccc3)[C@@H](C)C1)C2 (stereo partly drawn) [2S,4R-4+4’b, R-5,6-Dimethoxy-2-((2S,4R-2-methyl-1-(S-1-phenylethyl)piperidin-4-yl)-methyl)-2,3-dihydro-1H-inden-1-one (4b) and S-5,6-Dimethoxy-2-((2S,4R-2-methyl-1-(S-1-phenylethyl)piperidin-4-yl)-methyl)-2,3-dihydro-1H-inden-1-one (4′b)]
- IC50: 8.82 ± 0.21 µM

SMILES: COc1cc2c(cc1OC)C(=O)C(C[C@H]1CCN([C@@H](C)c3ccccc3)[C@H](C)C1)C2 (stereo partly drawn) [2R,4S-4+4’c, R-5,6-Dimethoxy-2-((2R,4S-2-methyl-1-(S-1-phenylethyl)piperidin-4-yl)-methyl)-2,3-dihydro-1H-inden-1-one (4c) and S-5,6-Dimethoxy-2-((2R,4S-2-methyl-1-(S-1-phenylethyl)piperidin-4-yl)-methyl)-2,3-dihydro-1H-inden-1-one (4′c)]
- IC50: 24.3 ± 1.32 µM

SMILES: COc1cc2c(cc1OC)C(=O)C(CC1CCN([C@@H](C)c3ccccc3)CC1)C2 (stereo partly shown) [19+19’, R-5,6-Dimethoxy-2-((1-(S-1-phenylethyl)piperidin-4-yl)methyl)-2,3-dihydro-1H-inden-1-one (19) and S-5,6-Dimethoxy-2-((1-(S-1-phenylethyl)piperidin-4-yl)methyl)-2,3-dihydro-1H-inden-1-one (19′)]
- IC50: 1.83 ± 0.04 µM
- times less active than donepezil 1 (IC50 ratio) (eeAChE IC50 compared with donepezil 1): approximately 27 times

SMILES: COc1cc2c(cc1OC)C(=O)C(C[C@H]1CCN([C@@H](C)c3ccccc3)[C@@H](C)C1)C2 (stereo partly drawn) [2S,4S-4+4’a, R-5,6-Dimethoxy-2-((2S,4S-2-methyl-1-(S-1-phenylethyl)piperidin-4-yl)-methyl)-2,3-dihydro-1H-inden-1-one (4a) and y-5,6-Dimethoxy-2-((2S,4S-2-methyl-1-(S-1-phenylethyl)piperidin-4-yl)-methyl)-2,3-dihydro-1H-inden-1-one (4′a)]
- IC50: 1.01 ± 0.03 µM
- times more active than the 2R,4S-anti-substituted analogues 4 + 4′c (IC50 ratio) (eeAChE IC50, syn versus anti): approximately 24 times

SMILES: COc1cc2c(cc1OC)C(=O)C(C[C@@H]1CCN([C@@H](C)c3ccccc3)[C@H](C)C1)C2 (stereo partly drawn) [2R,4R-4+4’d, R-5,6-Dimethoxy-2-((2R,4R-2-methyl-1-(S-1-phenylethyl)piperidin-4-yl)-methyl)-2,3-dihydro-1H-inden-1-one (4d) and S-5,6-Dimethoxy-2-((2R,4R-2-methyl-1-(S-1-phenylethyl)piperidin-4-yl)-methyl)-2,3-dihydro-1H-inden-1-one (4′d)]
- IC50: 13.1 ± 0.47 µM
